# Like-named read-outs stand apart in the source and are kept apart here.
# How the values were obtained:
# N–Flag–α4β3 receptors = biological target: T1, N–Flag–α4β3 receptors (Homo sapiens, UniProt P28472+P48169); experiment: Whole-cell patch-clamp of GABA-elicited currents in the control N-Flag-α4β3 cell line; type: cell-based; details: drug 10 μM co-applied for 4 s, 10 mM GABA, notch protocol
# T1 construct: expressed in transfected cells
# Protocol: HEK 293 cells stably expressing tetracycline inducible α4β3N-Flag-δ or N-Flag-α4β3 GABAA receptors were cultured on glass coverslips and induced with tetracycline (2μg/ml) 24 hours before recordings. The coverslips were placed in a recording chamber and perfused with the bath solution. Cells were voltage clamped at -50 mV using the patch clamp amplifier (Axopatch 200A, Molecular Devices, Sunnyvale, CA). GABAA receptor-mediated chloride currents from HEK cells were recorded using the whole-cell configuration of patch-clamp electrophysiology. Data was acquired using Clampex version 8.1 (Molecular Devices), digitized at 10 kHz and filtered at 5 kHz. Current traces were analyzed using Clampfit version 9 (Molecular Devices). Series resistance ranged from 0.5–4 MΩ and cell capacitances from 9–18 pF. Membrane-capacitance and series-resistance were compensated electronically by > 85% with a lag of 10 μ seconds. […]
# Statistical analysis for electrophysiology was done using GraphPad Prism 6. […] For Western blotting, the ratio of the signal intensity of individual antibodies for each sample was determined. Pooled (weighted) mean and standard deviation was determined for each receptor and p value determined by two-tailed unpaired Student’s t-test, using GraphPad QuickCalcs software.
# α4β3N–Flag–δ GABAAR = biological target: T2, α4β3N–Flag–δ GABAAR (Homo sapiens, UniProt O14764+P28472+P48169); experiment: Whole-cell patch-clamp of GABA-elicited currents in the induced α4β3N-Flag-δ cell line; type: cell-based; details: for enhancement of maximum GABA elicited currents: drug 10 μM co-applied for 4 s, notch protocol
# T2 construct: expressed in transfected cells
# T2 sequence (P48169 36-554): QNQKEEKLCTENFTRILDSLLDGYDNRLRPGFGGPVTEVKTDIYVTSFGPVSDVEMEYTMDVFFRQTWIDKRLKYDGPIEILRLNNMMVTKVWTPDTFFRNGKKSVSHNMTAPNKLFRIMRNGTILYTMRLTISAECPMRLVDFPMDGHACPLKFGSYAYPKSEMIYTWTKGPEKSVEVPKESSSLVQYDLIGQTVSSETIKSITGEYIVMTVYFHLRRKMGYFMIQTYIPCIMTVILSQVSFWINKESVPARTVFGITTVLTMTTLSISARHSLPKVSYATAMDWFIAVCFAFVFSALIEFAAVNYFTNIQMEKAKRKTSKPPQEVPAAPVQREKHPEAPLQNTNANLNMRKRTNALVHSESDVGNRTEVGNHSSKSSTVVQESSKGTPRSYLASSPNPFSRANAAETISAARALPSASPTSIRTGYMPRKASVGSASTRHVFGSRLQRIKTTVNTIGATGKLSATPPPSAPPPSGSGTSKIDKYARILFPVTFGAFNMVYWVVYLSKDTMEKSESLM
# T2 sequence (P28472 26-473 isoform P28472-2 limits assumed): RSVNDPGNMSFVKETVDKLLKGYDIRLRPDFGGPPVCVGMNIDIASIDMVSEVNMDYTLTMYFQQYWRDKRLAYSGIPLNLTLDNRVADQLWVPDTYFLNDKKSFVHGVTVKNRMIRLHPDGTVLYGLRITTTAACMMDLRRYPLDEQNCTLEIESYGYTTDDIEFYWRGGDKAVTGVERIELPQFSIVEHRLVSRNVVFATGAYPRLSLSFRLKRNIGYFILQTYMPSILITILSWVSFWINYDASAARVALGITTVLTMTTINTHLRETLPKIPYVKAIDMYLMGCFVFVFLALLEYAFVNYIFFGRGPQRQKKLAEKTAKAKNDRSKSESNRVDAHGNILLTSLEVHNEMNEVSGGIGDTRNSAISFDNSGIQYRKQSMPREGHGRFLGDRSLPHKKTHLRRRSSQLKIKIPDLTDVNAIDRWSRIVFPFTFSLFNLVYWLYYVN
# T2 sequence (O14764 25-452): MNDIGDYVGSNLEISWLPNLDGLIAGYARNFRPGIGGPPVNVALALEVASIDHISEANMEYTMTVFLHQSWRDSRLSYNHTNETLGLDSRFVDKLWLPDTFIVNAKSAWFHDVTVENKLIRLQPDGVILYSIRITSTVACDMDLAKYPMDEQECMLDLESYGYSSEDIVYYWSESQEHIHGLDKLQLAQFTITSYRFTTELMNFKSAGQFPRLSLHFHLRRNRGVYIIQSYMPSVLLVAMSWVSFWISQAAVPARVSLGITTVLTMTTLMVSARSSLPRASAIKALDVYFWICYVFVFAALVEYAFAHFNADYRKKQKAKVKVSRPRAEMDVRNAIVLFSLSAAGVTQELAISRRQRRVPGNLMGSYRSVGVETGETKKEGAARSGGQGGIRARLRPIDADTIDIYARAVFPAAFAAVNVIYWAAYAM
# Protocol: HEK 293 cells stably expressing tetracycline inducible α4β3N-Flag-δ or N-Flag-α4β3 GABAA receptors were cultured on glass coverslips and induced with tetracycline (2μg/ml) 24 hours before recordings. The coverslips were placed in a recording chamber and perfused with the bath solution. Cells were voltage clamped at -50 mV using the patch clamp amplifier (Axopatch 200A, Molecular Devices, Sunnyvale, CA). GABAA receptor-mediated chloride currents from HEK cells were recorded using the whole-cell configuration of patch-clamp electrophysiology. Data was acquired using Clampex version 8.1 (Molecular Devices), digitized at 10 kHz and filtered at 5 kHz. Current traces were analyzed using Clampfit version 9 (Molecular Devices). Series resistance ranged from 0.5–4 MΩ and cell capacitances from 9–18 pF. Membrane-capacitance and series-resistance were compensated electronically by > 85% with a lag of 10 μ seconds. Drugs were delivered via a multichannel superfusion pipette coupled to a piezoelectric elements that switched superfusion solution in < 1 millisecond. The recording chamber was continuously perfused with the bath solution in mM: 145 NaCl, 5 KCl, 10 HEPES, 2 CaCl2, and 1 MgCl2, 10 glucose, pH 7.4 (pH adjusted with N-methyl glucosamine). The pipette solution for whole-cell recordings contained in mM: 140 KCl, 10 HEPES, 1 EGTA and 2 MgCl2 at pH 7.3 (pH adjusted with KOH). Open pipette resistances ranged from 1.6–3 M. Errors are standard deviation from at least three replicas.
# (§1) Statistical analysis for electrophysiology was done using GraphPad Prism 6. […] Analysis of the [^3H]muscimol binding was carried out using Igor Pro 7 (WaveMetrics). For Western blotting, the ratio of the signal intensity of individual antibodies for each sample was determined. Pooled (weighted) mean and standard deviation was determined for each receptor and p value determined by two-tailed unpaired Student’s t-test, using GraphPad QuickCalcs software.
# [1] = biological target: T3, α4β3N-Flag-δ GABAA receptor reconstituted into CHAPS/lipid micelles (Homo sapiens, UniProt O14764+P28472+P48169); experiment: [3H]muscimol binding to purified receptor reconstituted into CHAPS/lipid micelles
# T3 construct: made in house; DDM solubilization, anti-Flag beads, elution with Flag peptide into CHAPS/lipid
# T3 sequence (P48169 36-554): as the sequence (P48169 36-554) above
# T3 sequence (P28472 26-473 isoform P28472-2 limits assumed): as the sequence (P28472 26-473 isoform P28472-2 limits assumed) above
# T3 sequence (O14764 25-452): as the sequence (O14764 25-452) above
# Protocol: Cells with inducible expression of N-Flag-α4β3 and α4β3N-Flag-δ were induced with tetracycline (1 μg/ml final concentration, Life Technologies) and 5 mM sodium butyrate (Sigma-Aldrich, St. Louis, MO) for 24 hours and harvested in 10 ml per ten 15 cm–dishes of 10 mM HEPES, 1 mM EDTA (buffer A) freshly supplemented with protease inhibitors and 1 mM PMSF (final concentration) at 4°C with all subsequent purification procedures carried out at 4°C. Cells were homogenized with three cycles of 10 s each separated by 30 s intervals (Ultra Turrax T25, IKA Works, Wilmington, NC), followed by 20 strokes in Kontes-Duval glass tissue grinder. Homogenate was centrifuged at 43,000 x g for 30 min at 4°C and the pellet was resuspended in the buffer A and the entire procedure repeated. The resulting pellet was resuspended in the buffer A and a final homogenization carried out by aspiration with a 21-gauge needle and expulsed through 27-gauge needle. Concentration of total protein was assessed with the Pierce BCA protein assay kit (Pierce, Rockford, IL). Under constant stirring, the membrane fraction was solubilized over 30 min by dropwise addition of 30 mM DDM (Anatrace, Maumee, OH) in buffer B (50 mM Tris/HCl, 150 mM NaCl, 2 mM CaCl2, 5 mM KCl, 5 mM MgCl2, 4 mM EDTA, pH 7.5) and 10% glycerol, supplemented with protease inhibitors and 1 mM PMSF, with the volume adjusted to produce an effective protein concentration of 1 mg/ml. Following an additional 2 hours of solubilization, the solution was centrifuged at 45,000 x g for 30 min at 4°C. Insoluble material in the pellet was discarded and the supernatant was stored in liquid nitrogen overnight.
# After washing once with buffer B, 2 ml of Flag beads (Sigma-Aldrich) were pre-treated overnight at 4°C on polypropylene columns (Qiagen, Hilden, Germany) with 1.5 ml of 10 mg/ml poly-d-Lysine hydrobromide with gentle agitation. On the following day, beads were washed three times with six 2–ml volumes of buffer B with 10% glycerol and incubated with solubilized membrane fractions with gentle agitation for 2 hours. Once transferred back into propylene columns, beads were washed once with wash buffer (17 mM CHAPS, 8.5 mM asolectin in buffer B with 10% glycerol, homogenized with glass grinder and sonicated for 10 min), equilibrated with the same buffer for 1 hour with agitation and washed again. Two more washes with elution buffer (5 mM CHAPS, 200 μM asolectin in buffer B with 10% glycerol, prepared as with wash buffer) were performed prior to elution of receptors by incubation with two x 2–ml of elution buffer supplemented with 0.15 mg/ml of Flag peptide (Sigma-Aldrich) for 2 hours with gentle rocking (elution 1). Second elution (elution 2) and another overnight incubation with 2–ml (elution 3) followed.
# […] […] […] […] The curves were fitted by nonlinear least squares with weighting by standard deviation. These yielded apparent dissociation constants of 9.2 ± 0.6 and 35 ± 12 nM, respectively. The Bmax of the membranes was 22.6 ± 0.5 pmol/mg and for reconstituted receptors in micelles was 19 ± 3 pmol/mL. The Hill coefficients differed little from one (1.07 ± 0.3 and 0.90 ± 0.05 respectively).
# [2] = biological target: T4, α4β3N-Flag-δ GABAA receptor in native membranes (Homo sapiens, UniProt O14764+P28472+P48169); experiment: [3H]muscimol binding (filtration assay) to cell membranes
# T4 construct: expressed in transfected cells
# T4 sequence (P48169 36-554): as the sequence (P48169 36-554) above
# T4 sequence (P28472 26-473 isoform P28472-2 limits assumed): as the sequence (P28472 26-473 isoform P28472-2 limits assumed) above
# T4 sequence (O14764 25-452): as the sequence (O14764 25-452) above
# Protocol: Radioactive ligand binding assays were carried out as previously described, with the exception that GABAAR binding sites were assayed at 250 nM [^3H]muscimol because of this receptor’s higher affinity.
# as §1
# Fig 3 The binding isotherm of the agonist [^3H]muscimol to the α4β3N-Flag-δ GABAA receptor in native membranes and reconstituted into CHAPS/lipid micelles. Binding curves of [^3H]muscimol to α4β3N–Flag–δ GABAΑRs, both, in cell membranes (pmol/mg membrane protein) and after purification and reconstitution into micelles of 5 mM CHAPS and 200 μM DOPC:DOPS:Cholesterol in mole ratio 52:15:33 (pmol/mL). […] The displaceable binding and its standard deviation was determined by subtracting these two values and propagating errors at each total muscimol concentration. The curves were fitted by nonlinear least squares with weighting by standard deviation. These yielded apparent dissociation constants of 9.2 ± 0.6 and 35 ± 12 nM, respectively. The Bmax of the membranes was 22.6 ± 0.5 pmol/mg and for reconstituted receptors in micelles was 19 ± 3 pmol/mL. The Hill coefficients differed little from one (1.07 ± 0.3 and 0.90 ± 0.05 respectively).
# α1β3δ GABAARs = tested on: α1β3δ GABAARs; set-up: method as in PMID 27493204; details: cited from earlier work; for degree of desensitization: in 4 seconds
# α4β3δ receptors = details: cited from earlier work
# [3] = tested on: concatenated subunits β3-α1-δ/β3-α1; details: cited from earlier work
# α4β3γ2 receptors = details: cited from earlier work
# [4] = 2 nM [3H]muscimol, reconstituted
# [5] = after 8.5 ms pulse of 100 μM GABA, two exponentials
# [6] = linear fit of activation rate up to ~10 μM GABA
# [7] = CHAPS/DOPC:DOPS:Cholesterol micelles
# T1 sequence (P48169 36-554): as the sequence (P48169 36-554) above
# T1 sequence (P28472 26-473 isoform P28472-2 limits assumed): as the sequence (P28472 26-473 isoform P28472-2 limits assumed) above
compound,measurement,setting,value
O=C(Nc1c(-c2cccs2)nc2ccccn12)c1ccc(Cl)cc1 [DS2],enhancement of maximum GABA elicited currents,N–Flag–α4β3 receptors,12 ± 7%
same,enhancement of maximum GABA elicited currents,α4β3N–Flag–δ GABAAR; 10 mM GABA,230 ± 63%
same,EC50,"[1]; 2 nM [3H]muscimol, CHAPS/PC:PS:Cholesterol micelles, read-out: EC50 of modulation of [3H]muscimol binding",2300 ± 800 nM
same,Hill coefficient of modulation of [3H]muscimol binding,[1]; [4],1.2 ± 0.5
same,maximum modulation of [3H]muscimol binding,[1]; [4],132 ± 4%
same,enhancement of displaceable [3H]muscimol binding,"[1]; DS2 30 μM, [3H]muscimol 2 nM, CHAPS/lipid micelles",128 ± 11%
same,Hill coefficient of modulation of [3H]muscimol binding,"[2]; 2 nM [3H]muscimol, membranes",0.9 ± 0.2
same,maximum modulation of [3H]muscimol binding,"[2]; 2 nM [3H]muscimol, membranes",139 ± 4%
same,EC50,"[2]; 2 nM [3H]muscimol, native membranes, read-out: EC50 of modulation of [3H]muscimol binding",2000 ± 700 nM
same,enhancement of displaceable [3H]muscimol binding,"[2]; DS2 30 μM, [3H]muscimol 2 nM, membranes",142 ± 12%
"NCCCC(=O)O [GABA, γ-aminobutyric acid]",10–90% rise times,"α1β3δ GABAARs; 1 mM GABA, depending on the construct ratio",4 to 22 ms
same,deactivation rate (time),α1β3δ GABAARs; construct ratio 1:1:0.3,~ 170 ms
same,degree of desensitization,α1β3δ GABAARs; much lower transfection ratios,40–70%
same,degree of desensitization,α1β3δ GABAARs; transfection ratios similar to the authors',little desensitization
same,deactivation rate (time),α1β3δ GABAARs; varied with ratio of constructs transfected,100 to 200 ms
same,desensitization time constant τ,α4β3δ receptors; 100 μM GABA,4.8 s
same,rise time,α4β3δ receptors; 100 μM GABA,~ 100 ms
same,deactivation time constant,α4β3δ receptors; lower time resolution perfusion system,~ 400 ms
same,desensitization time constant,[3]; 1 mM GABA,4.7 s
same,degree of desensitization,[3]; after 4 s at 1 mM GABA,~ 40%
same,deactivation time constant,[3],~ 50 ms
same,activation time constant τ,α4β3N–Flag–δ GABAAR; 0.1 μM GABA,165 ± 20 ms
same,activation time constant τ,α4β3N–Flag–δ GABAAR; 100 μM GABA,6 ± 1 ms
same,fraction of available channels opened (efficacy of GABA),"α4β3N–Flag–δ GABAAR; 10 mM GABA, assumes 10 mM GABA + 10 μM etomidate opens 100% of channels",17 ± 6%
same,desensitization time constant τ,"α4β3N–Flag–δ GABAAR; 8-sec exposure to GABA 1–100 μM, all concentrations averaged",2.6 ± 0.9 s
same,fraction of total current decay amplitude occupied by fastest phase,α4β3N–Flag–δ GABAAR; after 8.5 ms pulse of 100 μM GABA,76 ± 12%
same,"deactivation time constant, fastest phase",α4β3N–Flag–δ GABAAR; [5],175 ± 50 ms
same,"deactivation time constant, slow phase",α4β3N–Flag–δ GABAAR; [5],1100 ± 440 ms
same,degree of desensitization,α4β3N–Flag–δ GABAAR; in 4 seconds at 100 μM GABA,~ 70%
same,k+1 apparent forward GABA binding rate,α4β3N–Flag–δ GABAAR; [6],5.7 ± 0.2 x 10^6 s^–1M^–1
same,k–1 apparent reverse GABA binding rate,α4β3N–Flag–δ GABAAR; [6],5 ± 1 s^–1
same,Hill coefficient of GABA concentration-response curve,α4β3N–Flag–δ GABAAR; peak currents normalized to 10 mM GABA,1.5 ± 0.24
same,k+1 apparent forward GABA binding rate,α4β3γ2 receptors,6 x 10^6 s^–1M^–1
NCc1cc(=O)[nH]o1 [[^3H]muscimol],Kd,"[1]; 5 mM CHAPS and 200 μM DOPC:DOPS:Cholesterol 52:15:33 micelles, read-out: apparent dissociation constant",35 ± 12 nM
same,Bmax,[1]; [7],19 ± 3 pmol/mL
same,Hill coefficient of binding isotherm,[1]; [7],0.90 ± 0.05
same,Bmax (sites per mg of membrane protein),[2]; cell membranes,22.6 ± 0.5 pmol/mg
same,apparent affinity relative to α1β3γ2 GABAAR cell line,"[2]; higher than in previously developed α1β3γ2 cell line (refs 13, 26)",5 fold
same,EC50,[2]; read-out: apparent dissociation constant (EC50 of binding isotherm),9.2 ± 0.6 nM
CCOC(=O)c1cncn1[C@H](C)c1ccccc1 [etomidate],enhancement of maximum GABA elicited currents,N–Flag–α4β3 receptors,490 ± 84%
same,enhancement of maximum GABA elicited currents,α4β3N–Flag–δ GABAAR; 10 mM GABA,540 ± 235%
picrotoxin,fraction of spontaneously open receptors (picrotoxin-inhibited current),"α4β3N–Flag–δ GABAAR; 2 mM picrotoxin for 8 s, relative to current with 10 mM GABA + 10 μM etomidate",about 3.2 ± 0.6%

# From PMC5774841, “High-level production and purification in a functional state of an extrasynaptic gamma-aminobutyric acid type A receptor containing α4β3δ subunits” (PLoS ONE, 2018)
